In ChEMBL document CHEMBL1201862, “PubChem BioAssay data set” (2004):
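Following 48 hours of exposure in 96-well plates, responses at five concentrations were used to interpolate endpoints linearly. The concentration for 50% growth inhibition is given as GI50.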 Active and inactive are the calls of the source. Rule as the data show it: active = GI50 up to about 1.1 µM and inactive = higher.

What was measured:
Assay in all cases: inhibition of tumour cell growth, NCI panel, 48 h
RPMI-8226 = system: RPMI-8226
T47D = system: T47D
MOLT-4 = system: MOLT-4
HCT-15 = system: HCT-15
U-251 = system: U-251
SK-MEL-5 = system: SK-MEL-5
NCI-H522 = system: NCI-H522
UACC-62 = system: UACC-62
SF-295 = system: SF-295
MDA-MB-231 = system: MDA-MB-231
M14 = system: M14
Hs-578T = system: Hs-578T
HOP-62 = system: HOP-62
TK-10 = system: TK-10
SW-620 = system: SW-620
ACHN = system: ACHN
MDA-N = system: MDA-N
CCRF-CEM = system: CCRF-CEM
NCI-H226 = system: NCI-H226
786-0 = system: 786-0
UO-31 = system: UO-31
SNB-75 = system: SNB-75
OVCAR-3 = system: OVCAR-3
HCT-116 = system: HCT-116
SR = system: SR
NCI/ADR-RES = system: NCI/ADR-RES
OVCAR-8 = system: OVCAR-8
SK-OV-3 = system: SK-OV-3
NCI-H23 = system: NCI-H23
SK-MEL-2 = system: SK-MEL-2
PC-3 = system: PC-3
DU-145 = system: DU-145
SNB-19 = system: SNB-19
HL-60 = system: HL-60
UACC-257 = system: UACC-257
NCI-H460 = system: NCI-H460
EKVX = system: EKVX
RXF 393 = system: RXF 393
HOP-92 = system: HOP-92
A498 = system: A498
A549 = system: A549
LOX IMVI = system: LOX IMVI
K562 = system: K562
SF-539 = system: SF-539
CAKI-1 = system: CAKI-1
MDA-MB-435 = system: MDA-MB-435
Malme-3M = system: Malme-3M
IGROV-1 = system: IGROV-1
HT-29 = system: HT-29
SK-MEL-28 = system: SK-MEL-28
SN12C = system: SN12C
COLO 205 = system: COLO 205
MCF7 = system: MCF7
HCC 2998 = system: HCC 2998
SF-268 = system: SF-268
KM12 = system: KM12
OVCAR-4 = system: OVCAR-4
OVCAR-5 = system: OVCAR-5

Question: For CCNc1cc2c3c(c1)CCN3CCC2, which GI50 (RPMI-8226) is on record?
Answer: 3.51 µM (inactive)

Question: And the GI50 (T47D)?
Answer: 4.71 µM (inactive)

Question: And the GI50 (MOLT-4)?
Answer: > 10 µM (inactive)

Question: What about the GI50 (HCT-15) of the same compound?
Answer: > 10 µM

Question: What about the GI50 (U-251) of the same compound?
Answer: > 10 µM (inactive)

Question: What about the GI50 (SK-MEL-5) of the same compound?
Answer: > 10 µM (inactive)

Question: And the GI50 (NCI-H522)?
Answer: 5.98 µM (inactive)

Question: And the GI50 (UACC-62)?
Answer: > 10 µM (inactive)

Question: And the GI50 (SF-295)?
Answer: > 10 µM (inactive)

Question: What about the GI50 (MDA-MB-231) of the same compound?
Answer: > 10 µM (inactive)

Question: What about the GI50 (M14) of the same compound?
Answer: > 10 µM (inactive)

Question: What about the GI50 (Hs-578T) of the same compound?
Answer: > 10 µM (inactive)

Question: And the GI50 (HOP-62)?
Answer: > 10 µM (inactive)

Question: What about the GI50 (TK-10) of the same compound?
Answer: > 10 µM (inactive)

Question: And the GI50 (SW-620)?
Answer: 6.3 µM (inactive)

Question: And the GI50 (ACHN)?
Answer: > 10 µM (inactive)

Question: What about the GI50 (MDA-N) of the same compound?
Answer: > 10 µM (inactive)

Question: And the GI50 (CCRF-CEM)?
Answer: 4.2 µM (inactive)

Question: What about the GI50 (NCI-H226) of the same compound?
Answer: > 10 µM (inactive)

Question: What about the GI50 (786-0) of the same compound?
Answer: > 10 µM (inactive)

Question: And the GI50 (UO-31)?
Answer: > 10 µM (inactive)

Question: And the GI50 (SNB-75)?
Answer: > 10 µM (inactive)

Question: And the GI50 (OVCAR-3)?
Answer: > 10 µM (inactive)

Question: What about the GI50 (HCT-116) of the same compound?
Answer: > 10 µM (inactive)

Question: What about the GI50 (SR) of the same compound?
Answer: 5.32 µM (inactive)

Question: And the GI50 (NCI/ADR-RES)?
Answer: > 10 µM (inactive)

Question: What about the GI50 (OVCAR-8) of the same compound?
Answer: 8.59 µM (inactive)

Question: What about the GI50 (SK-OV-3) of the same compound?
Answer: > 10 µM (inactive)

Question: And the GI50 (NCI-H23)?
Answer: > 10 µM (inactive)

Question: What about the GI50 (SK-MEL-2) of the same compound?
Answer: > 10 µM (inactive)

Question: What about the GI50 (PC-3) of the same compound?
Answer: > 10 µM (inactive)

Question: And the GI50 (DU-145)?
Answer: > 10 µM (inactive)

Question: And the GI50 (SNB-19)?
Answer: > 10 µM (inactive)

Question: And the GI50 (HL-60)?
Answer: 3.23 µM (inactive)

Question: And the GI50 (UACC-257)?
Answer: > 10 µM (inactive)

Question: And the GI50 (NCI-H460)?
Answer: > 10 µM (inactive)

Question: What about the GI50 (EKVX) of the same compound?
Answer: 5.86 µM (inactive)

Question: What about the GI50 (RXF 393) of the same compound?
Answer: > 10 µM (inactive)

Question: What about the GI50 (HOP-92) of the same compound?
Answer: > 10 µM (inactive)

Question: And the GI50 (A498)?
Answer: > 10 µM (inactive)

Question: What about the GI50 (A549) of the same compound?
Answer: > 10 µM (inactive)

Question: What about the GI50 (LOX IMVI) of the same compound?
Answer: > 10 µM (inactive)

Question: And the GI50 (K562)?
Answer: 1.72 µM (inactive)

Question: And the GI50 (SF-539)?
Answer: > 10 µM (inactive)

Question: And the GI50 (CAKI-1)?
Answer: > 10 µM (inactive)

Question: What about the GI50 (MDA-MB-435) of the same compound?
Answer: > 10 µM (inactive)

Question: What about the GI50 (Malme-3M) of the same compound?
Answer: > 10 µM (inactive)

Question: What about the GI50 (IGROV-1) of the same compound?
Answer: > 10 µM (inactive)

Question: What about the GI50 (HT-29) of the same compound?
Answer: > 10 µM (inactive)

Question: And the GI50 (SK-MEL-28)?
Answer: > 10 µM (inactive)

Question: What about the GI50 (SN12C) of the same compound?
Answer: > 10 µM (inactive)

Question: And the GI50 (COLO 205)?
Answer: > 10 µM (inactive)

Question: What about the GI50 (MCF7) of the same compound?
Answer: > 10 µM (inactive)

Question: And the GI50 (HCC 2998)?
Answer: > 10 µM (inactive)

Question: What about the GI50 (SF-268) of the same compound?
Answer: > 10 µM (inactive)

Question: What about the GI50 (KM12) of the same compound?
Answer: 5.6 µM (inactive)

Question: And the GI50 (OVCAR-4)?
Answer: > 10 µM (inactive)

Question: Which GI50 (RPMI-8226) does the source give for [N-]=[N+]=NI1OC(=O)c2ccccc21 here?
Answer: 24 µM (inactive)

Question: And the GI50 (T47D)?
Answer: > 100 µM (inactive)

Question: And the GI50 (MOLT-4)?
Answer: 66.8 µM (inactive)

Question: What about the GI50 (HCT-15) of the same compound?
Answer: 50.7 µM

Question: And the GI50 (U-251)?
Answer: 92.9 µM (inactive)

Question: What about the GI50 (NCI-H522) of the same compound?
Answer: 17.3 µM (inactive)

Question: What about the GI50 (UACC-62) of the same compound?
Answer: > 100 µM (inactive)

Question: What about the GI50 (SF-295) of the same compound?
Answer: > 100 µM (inactive)

Question: What about the GI50 (MDA-MB-231) of the same compound?
Answer: > 100 µM (inactive)

Question: And the GI50 (M14)?
Answer: > 100 µM (inactive)

Question: And the GI50 (Hs-578T)?
Answer: > 100 µM (inactive)

Question: And the GI50 (HOP-62)?
Answer: > 100 µM (inactive)

Question: What about the GI50 (TK-10) of the same compound?
Answer: > 100 µM (inactive)

Question: And the GI50 (SW-620)?
Answer: 65.3 µM (inactive)

Question: What about the GI50 (ACHN) of the same compound?
Answer: 65.9 µM (inactive)

Question: And the GI50 (CCRF-CEM)?
Answer: 37.9 µM (inactive)

Question: What about the GI50 (NCI-H226) of the same compound?
Answer: > 100 µM (inactive)

Question: And the GI50 (786-0)?
Answer: > 100 µM (inactive)

Question: And the GI50 (UO-31)?
Answer: > 100 µM (inactive)

Question: And the GI50 (SNB-75)?
Answer: > 100 µM (inactive)

Question: And the GI50 (OVCAR-3)?
Answer: > 100 µM (inactive)

Question: What about the GI50 (HCT-116) of the same compound?
Answer: > 100 µM (inactive)

Question: What about the GI50 (SR) of the same compound?
Answer: 38.7 µM (inactive)

Question: And the GI50 (NCI/ADR-RES)?
Answer: > 100 µM (inactive)

Question: What about the GI50 (OVCAR-8) of the same compound?
Answer: > 100 µM (inactive)

Question: And the GI50 (SK-OV-3)?
Answer: > 100 µM (inactive)

Question: What about the GI50 (NCI-H23) of the same compound?
Answer: > 100 µM (inactive)

Question: What about the GI50 (SK-MEL-2) of the same compound?
Answer: > 100 µM (inactive)

Question: And the GI50 (PC-3)?
Answer: > 100 µM (inactive)

Question: What about the GI50 (DU-145) of the same compound?
Answer: > 100 µM (inactive)

Question: And the GI50 (SNB-19)?
Answer: > 100 µM (inactive)

Question: And the GI50 (HL-60)?
Answer: 40.5 µM (inactive)

Question: And the GI50 (UACC-257)?
Answer: > 100 µM (inactive)

Question: And the GI50 (EKVX)?
Answer: > 100 µM (inactive)

Question: What about the GI50 (RXF 393) of the same compound?
Answer: 32.2 µM (inactive)

Question: What about the GI50 (HOP-92) of the same compound?
Answer: 44.9 µM (inactive)

Question: What about the GI50 (A498) of the same compound?
Answer: > 100 µM (inactive)

Question: And the GI50 (A549)?
Answer: > 100 µM (inactive)

Question: What about the GI50 (LOX IMVI) of the same compound?
Answer: 90.2 µM (inactive)

Question: And the GI50 (K562)?
Answer: 36.6 µM (inactive)

Question: What about the GI50 (SF-539) of the same compound?
Answer: > 100 µM (inactive)

Question: And the GI50 (CAKI-1)?
Answer: 23.8 µM (inactive)

Question: What about the GI50 (MDA-MB-435) of the same compound?
Answer: 67.3 µM (inactive)

Question: And the GI50 (IGROV-1)?
Answer: > 100 µM (inactive)

Question: And the GI50 (HT-29)?
Answer: > 100 µM (inactive)

Question: What about the GI50 (SK-MEL-28) of the same compound?
Answer: 47.2 µM (inactive)

Question: And the GI50 (SN12C)?
Answer: > 100 µM (inactive)

Question: And the GI50 (COLO 205)?
Answer: 48.5 µM (inactive)

Question: What about the GI50 (MCF7) of the same compound?
Answer: 93.5 µM (inactive)

Question: What about the GI50 (OVCAR-5) of the same compound?
Answer: 66.5 µM (inactive)

Question: What about the GI50 (HCC 2998) of the same compound?
Answer: > 100 µM (inactive)

Question: And the GI50 (SF-268)?
Answer: 73.6 µM (inactive)

Question: And the GI50 (KM12)?
Answer: > 100 µM (inactive)

Question: And the GI50 (OVCAR-4)?
Answer: > 100 µM (inactive)
